Measured values taken from patent US8183252B2, “Heterocyclic aspartyl protease inhibitors” (Schering Corporation, priority 2007, dated 2012).

Biological target: T1, human BACE1 (sproBACE1) (Homo sapiens, UniProt P56817)
T1 construct: sBACE1, corresponding to amino acids 1-454; made in house; host or cells: Sf9 insect cells (baculovirus), secreted into the medium
Test: BACE-1 Peptide Hydrolysis Assay (HTRF)
Type: biochemical
Settings: not given
In short: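 Secreted sBACE1-myc/His from baculovirus-infected sf9 cells, purified on Q-sepharose then Ni-NTA. Substrate-initiated reactions ran 3 hr at 30° C., then were stopped with KF buffer (pH 8.0) containing SA-XL665 for HTRF read-out. EC50 was fitted by sigmoidal dose-response to percent change in ratio.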

T1 sequence (P56817 22-454): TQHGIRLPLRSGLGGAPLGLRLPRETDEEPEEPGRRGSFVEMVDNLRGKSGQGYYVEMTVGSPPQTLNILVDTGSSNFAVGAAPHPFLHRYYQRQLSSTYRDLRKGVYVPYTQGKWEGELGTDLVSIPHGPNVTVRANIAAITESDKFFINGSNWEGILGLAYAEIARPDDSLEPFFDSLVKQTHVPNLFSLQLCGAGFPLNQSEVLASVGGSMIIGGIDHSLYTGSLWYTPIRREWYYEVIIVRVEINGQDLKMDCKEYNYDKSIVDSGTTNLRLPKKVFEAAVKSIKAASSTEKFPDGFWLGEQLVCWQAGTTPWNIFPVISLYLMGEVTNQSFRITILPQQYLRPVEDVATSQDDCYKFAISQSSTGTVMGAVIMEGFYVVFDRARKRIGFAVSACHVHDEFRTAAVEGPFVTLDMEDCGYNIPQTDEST

| SMILES | Ki [µM] |
| --- | --- |
| CCn1nccc1Nc1cccc(C2(C)NC(=N)N(CC3CCN(C(C)=O)CC3)C2=O)c1 (racemic) | < 5 |
| CS(=O)(=O)N1CCCC(CCN2C(=N)NC(c3ccccc3)(c3ccccc3)C2=O)C1 (racemic) | < 5 |

Same assay, conditions: read-out: BACE-1 Ki

| SMILES | Ki [µM] |
| --- | --- |
| CN1C(=N)NC(c2ccccc2)(c2cccc(-c3cc(Br)cc(OC(F)(F)F)c3)c2)C1=O (racemic) | < 5 |
| CN1C(=N)NC(C)(c2ccc(F)c(-c3cccnc3)c2)C1=O (racemic) | < 5 |
| COc1cccc(-c2cc(F)cc(C3(c4ccccc4)NC(=N)N(C)C3=O)c2)c1 (racemic) | < 5 |
| CCN(CCc1cccc(C2(c3ccccc3)NC(=N)N(C)C2=O)c1)C(C)=O (racemic) | < 5 |
| CCN(CCc1cccc(C2(c3ccccc3)NC(=N)N(C)C2=O)c1)S(C)(=O)=O (racemic) | < 5 |
| CN1C(=N)NC(c2ccccc2)(c2cccc(NC(=O)CC3CC3)c2)C1=O (racemic) | < 5 |
| CN1C(=N)NC(c2ccccc2)(c2cccc(NS(C)(=O)=O)c2)C1=O (racemic) | < 5 |
| CN1C(=N)NC(c2ccccc2)(c2cccc(NS(=O)(=O)c3cccs3)c2)C1=O (racemic) | < 5 |
| CN1C(=N)NC(c2ccccc2)(c2cccc(NS(=O)(=O)c3ccccc3)c2)C1=O (racemic) | < 5 |
| CN1C(=N)NC(c2ccccc2)(c2cccc(NC(=O)c3ccccc3)c2)C1=O (racemic) | < 5 |
| CN1C(=N)NC(c2ccccc2)(c2cccc(NC(=O)c3ccoc3)c2)C1=O (racemic) | < 5 |
| CN1C(=N)NC(c2ccccc2)(c2cccc(-c3ccoc3)c2)C1=O (racemic) [5-[3-(3-FURANYL)PHENYL]-2-IMINO-3-METHYL-5-PHENYL-4-IMIDAZOLIDINONE (RACEMIC), 5-[3-(3-FURANYL)PHENYL]-2-IMINO-3-METHYL-5-PHENYL-4-IMIDAZOLIDINONE] | < 5 |
| COC1C(=O)N(C)C(=N)NC1(C)c1cc(-c2ccc(F)c(C#N)c2)cs1 (single isomer, unassigned) | < 5 |
| CN1C(=N)NC(C)(c2cc(-c3cccc(C#N)c3)cs2)C(n2cccn2)C1=O (single isomer, unassigned) | < 5 |
| CCCCS(=O)(=O)Nc1ccc(CN2C(=N)NC(c3ccccc3)(c3ccccc3)C2=O)cc1 [1-butanesulfonamide, N-[4-[(2-imino-5-oxo-4,4-diphenyl-1-imidazolidinyl)methyl]phenyl]-] | < 5 |
| CC(C)S(=O)(=O)Nc1ccc(CN2C(=N)NC(c3ccccc3)(c3ccccc3)C2=O)cc1 [2-propanesulfonamide, N-[4-[(2-imino-5-oxo-4,4-diphenyl-1-imidazolidinyl)methyl]phenyl]-] | < 5 |
| CN1C(=N)NC(c2ccccc2)(c2cc(-c3cccc(C#N)c3)cs2)C1=O (stereo not shown) [3-[5-(2-IMINO-1-METHYL-5-OXO-4-PHENYL-4-IMIDAZOLIDINYL)-3-THIENYL]BENZONITRILE] | < 5 |
| N=C1NC(c2cccc(-c3cccc(Cl)c3)c2)(C2CC2)C(=O)N1C1CCC1 (stereo not shown) [4-imidazolidinone, 5-(3′-chloro[1,1′-biphenyl]-3-yl)-3-cyclobutyl-5-cyclopropyl-2-imino-] | < 5 |
| N=C1NC(c2cccc(-c3cccc(Cl)c3)c2)(C2CC2)C(=O)N1C1CCCC1 (stereo not shown) [4-imidazolidinone, 5-(3′-chloro[1,1′-biphenyl]-3-yl)-3-cyclopentyl-5-cyclopropyl-2-imino-] | < 5 |

| SMILES | Ki [µM] |
| --- | --- |
| CC(C)N1C(=N)NC(c2cccc(-c3cccc(Cl)c3)c2)(C2CC2)C1=O (stereo not shown) [4-imidazolidinone, 5-(3′-chloro[1,1′-biphenyl]-3-yl)-5-cyclopropyl-2-imino-3-(1-methylethyl)-] | < 5 |
| CCC(C)N1C(=N)NC(c2cccc(-c3cccc(Cl)c3)c2)(C2CC2)C1=O (stereo not shown) [4-imidazolidinone, 5-(3′-chloro[1,1′-biphenyl]-3-yl)-5-cyclopropyl-2-imino-3-(1-methylpropyl)-] | < 5 |
| N=C1NC(c2cccc(-c3cccc(Cl)c3)c2)(C2CC2)C(=O)N1CC(F)(F)F (stereo not shown) [4-imidazolidinone, 5-(3′-chloro[1,1′-biphenyl]-3-yl)-5-cyclopropyl-2-imino-3-(2,2,2-trifluoroethyl)-] | < 5 |
| N=C1NC(c2cccc(-c3cccc(Cl)c3)c2)(C2CC2)C(=O)N1C1CCOCC1 (stereo not shown) [4-imidazolidinone, 5-(3′-chloro[1,1′-biphenyl]-3-yl)-5-cyclopropyl-2-imino-3-(tetrahydro-2H-pyran-4-yl)-] | < 5 |
| CCC(CO)N1C(=N)NC(c2cccc(-c3cccc(Cl)c3)c2)(C2CC2)C1=O (stereo not shown) [4-imidazolidinone, 5-(3′-chloro[1,1′-biphenyl]-3-yl)-5-cyclopropyl-3-[1-(hydroxymethyl)propyl]-2-imino-] | < 5 |
| N=C1NC(c2cccc(-c3cccc(Cl)c3)c2)(C2CC2)C(=O)N1C(CO)CO (stereo not shown) [4-imidazolidinone, 5-(3′-chloro[1,1′-biphenyl]-3-yl)-5-cyclopropyl-3-[2-hydroxy-1-(hydroxymethyl)ethyl]-2-imino-] | < 5 |
| CCN(CC)CCCN1C(=N)NC(c2cccc(-c3cccc(Cl)c3)c2)(C2CC2)C1=O (stereo not shown) [4-imidazolidinone, 5-(3′-chloro[1,1′-biphenyl]-3-yl)-5-cyclopropyl-3-[3-(diethylamino)propyl]-2-imino-] | < 5 |
| CC(C)[C@H](CO)N1C(=N)NC(c2cccc(-c3cccc(Cl)c3)c2)(C2CC2)C1=O (stereo partly drawn) [4-imidazolidinone, 5-(3′-chloro[1,1′-biphenyl]-3-yl)-5-cyclopropyl-3-[(1R)-1-(hydroxymethyl)-2-methylpropyl]-2-imino-] | < 5 |
| CN1C(=N)NC(c2cccc(Br)c2)(C2(C)CC2)C1=O (stereo not shown) [5-(3-BROMOPHENYL)-2-IMINO-3-METHYL-5-(1-METHYLCYCLOPROPYL)-4-IMIDAZOLIDINONE] | < 5 |
| CN1C(=N)NC(c2cccc(Br)c2)(C2CCC2)C1=O (stereo not shown) [5-(3-BROMOPHENYL)-5-CYCLOBUTYL-2-IMINO-3-METHYL-4-IMIDAZOLIDINONE] | < 5 |
| CN1C(=N)NC(c2cccc(Br)c2)(C2CCCCC2)C1=O (stereo not shown) [5-(3-BROMOPHENYL)-5-CYCLOHEXYL-2-IMINO-3-METHYL-4-IMIDAZOLIDINONE] | < 5 |
| CN1C(=N)NC(c2cccc(Br)c2)(C2CCCC2)C1=O (stereo not shown) [5-(3-BROMOPHENYL)-5-CYCLOPENTYL-2-IMINO-3-METHYL-4-IMIDAZOLIDINONE] | < 5 |
| CN1C(=N)NC(c2cccc(-n3ccnc3)c2)(C2CC2)C1=O (stereo not shown) [5-CYCLOPROPYL-5-[3-(1H-IMIDAZOL-1-YL)PHENYL]-2-IMINO-3-METHYL-4-IMIDAZOLIDINONE] | < 5 |
| CN1C(=N)NC(c2ccccc2)(c2cc(-c3cccc(Cl)c3)cs2)C1=O (stereo not shown) [5-[4-(3-CHLOROPHENYL)-2-THIENYL]-2-IMINO-3-METHYL-5-PHENYL-4-IMIDAZOLIDINONE] | < 5 |
| CN1C(=N)NC(c2ccccc2)(c2cc(-c3cccc(F)c3)cs2)C1=O (stereo not shown) [5-[4-(3-FLUOROPHENYL)-2-THIENYL]-2-IMINO-3-METHYL-5-PHENYL-4-IMIDAZOLIDINONE] | < 5 |
| N=C1NC(c2ccccc2)(c2ccccc2)C(=O)N1Cc1cccc(NC(=O)c2ccccc2)c1 [BENZAMIDE, N-[3-[(2-IMINO-5-OXO-4,4-DIPHENYL-1-IMIDAZOLIDINYL)METHYL]PHENYL]-] | < 5 |
| CCCC(=O)Nc1cccc(CN2C(=N)NC(c3ccccc3)(c3ccccc3)C2=O)c1 [BUTANAMIDE, N-[3-[(2-IMINO-5-OXO-4,4-DIPHENYL-1-IMIDAZOLIDINYL)METHYL]PHENYL]-] | < 5 |
| COc1ccccc1C(=O)NCc1ccc(Cl)cc1-c1cccc(C2(C)NC(=N)N(C)C2=O)c1 (stereo not shown) [benzamide, N-[[5-chloro-3′-(2-imino-1,4-dimethyl-5-oxo-4-imidazolidinyl)[1,1′-biphenyl]-2-yl]methyl]-2-methoxy-] | < 5 |
| CN1C(=N)NC(C)(c2cccc(-c3cc(Cl)ccc3CNC(=O)Cc3ccccc3)c2)C1=O (stereo not shown) [benzeneacetamide, N-[[5-chloro-3′-(2-imino-1,4-dimethyl-5-oxo-4-imidazolidinyl)[1,1′-biphenyl]-2-yl]methyl]-] | < 5 |

Second part, the molecule after the results:

| Ki [µM] | SMILES |
| --- | --- |
| < 5 | CCCCS(=O)(=O)Nc1cccc(CN2C(=N)NC(c3ccccc3)(c3ccccc3)C2=O)c1 |
| < 5 | Cc1c(-c2cccc(C#N)c2)csc1[C@]1(C)CC(=O)N(C)C(=N)N1 |
| < 5 | COc1cc(C#N)cc(-c2cc([C@@]3(C)NC(=N)N(C)C(=O)[C@@H]3C)sc2C)c1 |
| < 5 | CN1C(=N)NC(c2cc(-c3cncc(Cl)c3)cs2)(C2CC2)C1=O (stereo not shown) |
| < 5 | CN1C(=N)N[C@](C)(c2ccc(F)cc2F)[C@@H](C2CCN(c3ccc(F)cc3)CC2)C1=O |
| < 5 | CN1C(=N)N[C@](C)(c2ccc3c(Br)n[nH]c3c2)CC1=O |
| < 5 | CN1C(=N)N[C@](CCc2ccccc2)(C[C@H]2CCC[C@@H](NC(=O)c3ccncc3)C2)C1=O |
| < 5 | N=C1NC(c2ccccc2)(c2ccccc2)C(=O)N1C[C@H]1CCCN(S(=O)(=O)C2CC2)C1 |
| < 5 | CN1C(=N)N[C@](C)(c2cc(-c3cccnc3)cs2)CC1=O |
| < 5 | CN1C(=N)NC(C)(c2cc(-c3cccc(C#N)c3)cs2)C(CC#N)C1=O (mixture of isomers) |
| < 5 | CN1C(=N)NC(c2ccccc2)(c2cccc(NCc3ccccc3)c2)C1=O (racemic) |
| < 5 | Cc1cncc(-c2cccc(C3(C)NC(=N)N(C)C3=O)c2)c1 (racemic) |
| < 5 | CC1(c2cccc(-c3cccnc3)c2)NC(=N)N(Cc2cccc(N3CCCCS3(=O)=O)c2)C1=O (racemic) |
| < 5 | COc1cccc(-c2cccc(C3(C)NC(=N)N(Cc4cccc(N5CCCCS5(=O)=O)c4)C3=O)c2)c1 (racemic) |
| < 5 | CN1C(=N)NC(c2ccccc2)(c2cccc(NS(=O)(=O)c3cccc(C#N)c3)c2)C1=O (racemic) |
| < 5 | CCCN(CCC)C(=O)c1cccc(CN2C(=N)NC(C)(c3cccc(Br)c3)C2=O)c1 (racemic) |
| < 5 | CN1C(=N)NC(C)(c2cccc(-c3cncc(C#N)c3)c2)C1=O (racemic) |
| < 5 | CN1C(=N)NC(c2ccccc2)(c2cccc(-c3nccnc3Cl)c2)C1=O (racemic) |
